From ChEMBL document CHEMBL1201862, “PubChem BioAssay data set” (2004)
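Compound exposure: 48 hours, 5 concentrations, 96-well plates. Here, GI50 denotes the concentration required for 50% inhibition of growth.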 Active and inactive are the calls of the source. No stated cut-off is given here; in the data, active = GI50 up to about 1.1 µM and inactive = higher.

Key:
Assay in all cases: inhibition of tumour cell growth, NCI panel, 48 h
[1] = tested on: 786-0
[2] = tested on: A498
[3] = tested on: A549
[4] = tested on: ACHN
[5] = tested on: BT-549
[6] = tested on: CAKI-1
[7] = tested on: CCRF-CEM
[8] = tested on: COLO 205
[9] = tested on: DU-145
[10] = tested on: EKVX
[11] = tested on: HCC 2998
[12] = tested on: HCT-116
[13] = tested on: HCT-15
[14] = tested on: HL-60
[15] = tested on: HOP-62
[16] = tested on: HOP-92
[17] = tested on: HT-29
[18] = tested on: Hs-578T
[19] = tested on: IGROV-1
[20] = tested on: K562
[21] = tested on: KM12
[22] = tested on: LOX IMVI
[23] = tested on: M14
[24] = tested on: MCF7
[25] = tested on: MDA-MB-231
[26] = tested on: MDA-MB-435
[27] = tested on: MDA-N
[28] = tested on: MOLT-4
[29] = tested on: Malme-3M
[30] = tested on: NCI-H226
[31] = tested on: NCI-H23
[32] = tested on: NCI-H460
[33] = tested on: NCI-H522
[34] = tested on: NCI/ADR-RES
[35] = tested on: OVCAR-3
[36] = tested on: OVCAR-4
[37] = tested on: OVCAR-5
[38] = tested on: OVCAR-8
[39] = tested on: PC-3
[40] = tested on: RPMI-8226
[41] = tested on: RXF 393
[42] = tested on: SF-268
[43] = tested on: SF-295
[44] = tested on: SF-539
[45] = tested on: SK-MEL-28
[46] = tested on: SK-MEL-2
[47] = tested on: SK-MEL-5
[48] = tested on: SK-OV-3
[49] = tested on: SN12C
[50] = tested on: SNB-19
[51] = tested on: SNB-75
[52] = tested on: SR
[53] = tested on: SW-620
[54] = tested on: T47D
[55] = tested on: TK-10
[56] = tested on: U-251
[57] = tested on: UACC-257
[58] = tested on: UACC-62
[59] = tested on: UO-31

Structure (SMILES): O=C(OCc1ccccc1)N(CCCCN(CCCNCc1ccccc1)C(=O)OCc1ccccc1)CCCNCc1ccccc1
- GI50 [1]: 289 nM (active)
- GI50 [2]: 889 nM (active)
- GI50 [3]: 782 nM (active)
- GI50 [4]: 1510 nM (inactive)
- GI50 [5]: 1620 nM (inactive)
- GI50 [6]: 1420 nM (inactive)
- GI50 [7]: 242 nM (active)
- GI50 [8]: 262 nM (active)
- GI50 [9]: 1270 nM (inactive)
- GI50 [10]: 1490 nM (inactive)
- GI50 [11]: 462 nM (active)
- GI50 [12]: 249 nM (active)
- GI50 [13]: 352 nM
- GI50 [14]: 186 nM (active)
- GI50 [15]: 1600 nM (inactive)
- GI50 [16]: 120 nM (active)
- GI50 [17]: 240 nM (active)
- GI50 [18]: 1310 nM (inactive)
- GI50 [19]: 883 nM (active)
- GI50 [20]: 208 nM (active)
- GI50 [21]: 430 nM (active)
- GI50 [22]: 220 nM (active)
- GI50 [23]: 252 nM (active)
- GI50 [24]: 7760 nM (inactive)
- GI50 [25]: 885 nM (active)
- GI50 [26]: 242 nM (active)
- GI50 [27]: 288 nM (active)
- GI50 [28]: 194 nM (active)
- GI50 [29]: 1710 nM (inactive)
- GI50 [30]: 1050 nM (active)
- GI50 [31]: 1770 nM (inactive)
- GI50 [32]: 188 nM (active)
- GI50 [33]: 647 nM (active)
- GI50 [34]: 1710 nM (inactive)
- GI50 [35]: 1390 nM (inactive)
- GI50 [36]: 1660 nM (inactive)
- GI50 [37]: 1630 nM (inactive)
- GI50 [38]: 1540 nM (inactive)
- GI50 [39]: 1110 nM (active)
- GI50 [40]: 240 nM (active)
- GI50 [41]: 1630 nM (inactive)
- GI50 [42]: 1570 nM (inactive)
- GI50 [43]: 12200 nM (inactive)
- GI50 [44]: 243 nM (active)
- GI50 [45]: 1620 nM (inactive)
- GI50 [46]: 1360 nM (inactive)
- GI50 [47]: 697 nM (active)
- GI50 [48]: 14500 nM (inactive)
- GI50 [49]: 834 nM (active)
- GI50 [50]: 431 nM (active)
- GI50 [51]: 1430 nM (inactive)
- GI50 [52]: 191 nM (active)
- GI50 [53]: 221 nM (active)
- GI50 [54]: 1980 nM (inactive)
- GI50 [55]: 1580 nM (inactive)
- GI50 [56]: 258 nM (active)
- GI50 [57]: 360 nM (active)
- GI50 [58]: 881 nM (active)
- GI50 [59]: 1380 nM (inactive)

Structure (SMILES): O=C(/C=C/c1ccccc1Br)c1ccccc1
- GI50 [1]: 2070 nM (inactive)
- GI50 [2]: 3390 nM (inactive)
- GI50 [3]: 12000 nM (inactive)
- GI50 [4]: 1800 nM (inactive)
- GI50 [5]: 13600 nM (inactive)
- GI50 [6]: 2960 nM (inactive)
- GI50 [7]: 259 nM (active)
- GI50 [8]: 14500 nM (inactive)
- GI50 [9]: 8070 nM (inactive)
- GI50 [10]: 13000 nM (inactive)
- GI50 [11]: 2890 nM (inactive)
- GI50 [12]: 1890 nM (inactive)
- GI50 [13]: 2110 nM
- GI50 [14]: 1350 nM (inactive)
- GI50 [15]: 13400 nM (inactive)
- GI50 [16]: 16700 nM (inactive)
- GI50 [17]: 3030 nM (inactive)
- GI50 [18]: 5020 nM (inactive)
- GI50 [19]: 2990 nM (inactive)
- GI50 [20]: 1940 nM (inactive)
- GI50 [21]: 2140 nM (inactive)
- GI50 [22]: 1360 nM (inactive)
- GI50 [23]: 6610 nM (inactive)
- GI50 [24]: 427 nM (active)
- GI50 [25]: 13200 nM (inactive)
- GI50 [26]: 2460 nM (inactive)
- GI50 [27]: 6710 nM (inactive)
- GI50 [28]: 2840 nM (inactive)
- GI50 [30]: 17100 nM (inactive)
- GI50 [31]: 4390 nM (inactive)
- GI50 [32]: 4370 nM (inactive)
- GI50 [33]: 2650 nM (inactive)
- GI50 [34]: 6080 nM (inactive)
- GI50 [35]: 10400 nM (inactive)
- GI50 [36]: 1770 nM (inactive)
- GI50 [37]: 16100 nM (inactive)
- GI50 [38]: 2630 nM (inactive)
- GI50 [39]: 11400 nM (inactive)
- GI50 [40]: 3010 nM (inactive)
- GI50 [41]: 7820 nM (inactive)
- GI50 [42]: 3580 nM (inactive)
- GI50 [43]: 11300 nM (inactive)
- GI50 [44]: 4100 nM (inactive)
- GI50 [45]: 3690 nM (inactive)
- GI50 [46]: 15700 nM (inactive)
- GI50 [47]: 9310 nM (inactive)
- GI50 [48]: 16900 nM (inactive)
- GI50 [49]: 9840 nM (inactive)
- GI50 [50]: 10900 nM (inactive)
- GI50 [51]: 12000 nM (inactive)
- GI50 [52]: 2180 nM (inactive)
- GI50 [53]: 1580 nM (inactive)
- GI50 [54]: 4520 nM (inactive)
- GI50 [55]: 2170 nM (inactive)
- GI50 [56]: 1560 nM (inactive)
- GI50 [57]: 9680 nM (inactive)
- GI50 [58]: 11400 nM (inactive)
- GI50 [59]: 5550 nM (inactive)
